Measured values taken from patent US9364474B2, “Method for treatment of neurologic dysfunction” (MedDEV, Inc., priority 2004, dated 2016).
“Also recorded” adds a separate entry of the source. Where two headings read alike, the source gives them in different places.

Experiments:
[1] = in the human body; cited from earlier work
[2] = test system: Autistic children; conditions: cited from earlier work
[3] = test system: patient suffering from depression
Protocol: The treatment composition is suitably applied in a single daily dose, e.g., 0.01 mg of the MAO-A agonist in 0.05 ml of transdermal cream applied once every morning. Caffeine may also be included in the composition to compensate for the anti-hypertensive effect of the preferred reserpine; the caffeine may suitably be included in an amount from about 50-100 mg/dose.
Treatment was in the form of 0.01 mg of reserpine per 0.05 ml of transdermal cream, applied transdermally once a day in the morning.
The treatment consisted of 0.01 mg of reserpine per 0.05 ml of cream, applied transdermally by rubbing the cream into the skin once a day in the morning.
The treatment consisted of 0.01 mg of the reserpine per 0.05 ml of cream, applied transdermally by rubbing the cream into the skin once a day in the morning.
The patient discontinued the use of nortriptyline and the same day started the treatment of the present invention, using 0.01 mg of the reserpine per 0.05 ml cream, applied transdermally by rubbing the cream into the skin once a day in the morning.
The patient then started the treatment of the present invention, using 0.01 mg of the MAO-A activity stimulator (reserpine) per 0.05 ml cream, applied transdermally by rubbing the cream into the skin once a day in the morning.

[4] = test system: patient with Autism; assay: Case examples: patients with Autism (ASD), transdermal reserpine (with prior medication history); type: in vivo, human; conditions: for outcome of prior reserpine treatment: reserpine 0.01 mg/day
Protocol: The treatment composition is suitably applied in a single daily dose, e.g., 0.01 mg of the MAO-A agonist in 0.05 ml of spray solution applied once every morning.
Prior to administration of the present invention (transdermal reserpine), the patient's parents were provided with an informed consent documenting the potential risks, benefits and alternatives to this treatment. The patient was started on a dose of Reserpine at a 4× dilution resulting in a total dose of 0.01 mg. […] They were also given approximately 1400 mg of Calcium every morning.

[5] = test system: patient diagnosed with chronic schizophrenia; assay: Case example: patient with chronic schizophrenia, transdermal reserpine spray (with prior medication history); type: in vivo, human
[6] = test system: resting and evoked activity of the brain of patient with Autism; assay: Quantitative Electroencephalogram (qEEG, Neuroguide 2.5) in ASD patient; type: in vivo, human; conditions: ASD Example One
Protocol: In a paper by Thatcher et al, an Autistic signature was reported. […] Analysis was conducted using Neuroguide 2.5, a widely accepted and statistically valid instrument (Thatcher et al, 2003).

[7] = test system: aldehyde dehydrogenase; conditions: literature; cited from earlier work
[8] = test system: schizophrenic patients; conditions: Shepherd and Watt 1956; 0.75 mg per day; cited from earlier work
[9] = test system: MAO-A; conditions: Youdim & Sandler (1968); cited from earlier work
[10] = ASD Example Three, 0.01 mg per day
[11] = ASD Example Three, continued 0.01 mg per day
[12] = ASD Example Two, 0.01 mg per day
[13] = Schizophrenia Example One, first day
[14] = Schizophrenia Example One, fourth day
[15] = Schizophrenia Example One, next 2 days

SMILES: COC(=O)[C@H]1[C@H]2C[C@@H]3c4[nH]c5cc(OC)ccc5c4CCN3C[C@H]2C[C@@H](OC(=O)c2cc(OC)c(OC)c(OC)c2)[C@@H]1OC [reserpine]
- therapeutic half-life [1]: 33 h
- average optimum dose ([2]; Lehman et al 1957, oral): 5 mg per day
- optimum dose ([2]; Lehman et al 1957, oral, improvements only within this range, per day): 3 to 7 mg
- effectiveness in autism ([2]; Macready 2001, doses of 0.25-1.8 mg/day): may be effective in autism
- effect on symptoms of depression ([3]; Depression Example Five, 0.002 mg, other symptoms persisted): alleviation of their symptoms of feeling hopelessness and “doom and gloom”
- effect on symptoms of depression ([3]; Depression Example Five, 0.004 mg, third day, fatigue and insomnia still experienced): improvement in their emotions
- effect on symptoms of depression ([3]; Depression Example Five, 0.006 mg per day): all of the patient's symptoms of depression were successfully alleviated
- return of symptoms on long-term treatment ([3]; Depression Example Five, eight consecutive months, 0.006 mg per day transdermally): no return of the symptoms of depression
- time to resolution of fatigue and loss of energy after first dose ([3]; Depression Example Four: person, 0.01 mg of reserpine per 0.05 ml cream transdermally once a day, nortriptyline discontinued): one
- outcome after dose increase during stressful event ([3]; Depression Example Four, 0.02 mg for one week): insomnia and fatigue resolved
- return of symptoms on long-term treatment ([3]; Depression Example Four, 10 months of consecutive daily treatment, 0.01 mg): no return of the symptoms listed above
- outcome after return to the lower dose ([3]; Depression Example Four, returned to 0.01 mg dose): no return of any symptoms of depression
- time to significant improvement in state of mind after first application ([3]; Depression Example One: 250-pound person, 0.01 mg of reserpine per 0.05 ml of transdermal cream once a day): four
- weight lost during the treatment ([3]; Depression Example One, 0.01 mg transdermal once a day): > 20 pounds
- status of prior symptoms of depression on continued treatment ([3]; Depression Example One, 0.01 mg transdermal, consecutive 24-hour dosing regimen): remains free of all of the prior symptoms
- time from last dose to beginning return of symptoms ([3]; Depression Example One, dose forgotten for a day): about 32 hours
- time to freedom from all symptoms after applying the missed dose ([3]; Depression Example One, dose missed for 72 hours): one
- marijuana use during the treatment ([3]; Depression Example Three): has not used any marijuana during the treatment
- time to resolution of pessimism and negative mood aspects after first dose ([3]; Depression Example Three: 220-pound person, depression and substance abuse, 0.01 mg of reserpine per 0.05 ml of cream transdermally once a day): two
- cravings for substances of abuse ([3]; Depression Example Three, after first dose 0.01 mg): no cravings for marijuana or alcohol
- outcome after dose decrease ([3]; Depression Example Three, dose decreased to 0.0075 mg of reserpine): symptoms resolved that same day
- weight lost ([3]; Depression Example Three, first 60 days): five
- weight loss after resuming the treatment ([3]; Depression Example Two): 1-2 pound per week
- time to increased energy after applying the dose ([3]; Depression Example Two: 175-pound person, 0.01 mg of reserpine per 0.05 ml of cream transdermally once a day): one
- time to resolution of all perceptible symptoms after first application (except slight problems with memory) ([3]; Depression Example Two, 0.01 mg transdermal): ≤ 10 h
- return of symptoms during treatment ([3]; Depression Example Two, 30 consecutive days): no return of their symptoms
- time to resolution of symptoms after resuming the treatment ([3]; Depression Example Two, after 10 day interruption): one
- total weight lost ([3]; Depression Example Two, first 50 days): 15 pounds
- symptoms during interruption of treatment ([3]; Depression Example Two, treatment interrupted for 10 days): all of the symptoms returned
- time to improvement or resolution of symptoms after first application ([3]; each of the depression examples): 1 to 4 h
- course of headache after dose reduction ([3]; human, in vivo): resolved immediately
- effect of too high a dose ([3]; human, in vivo): undesirable increase in the symptoms of depression
- negative side effects ([3]; human, in vivo): no significant negative side effects
- side effect at starting dose ([3]; human, in vivo): headache that did not resolve spontaneously the first day
- effect of starting dose ([4]; ASD Example One: person, transdermal, total dose of 0.01 mg): some increased hyperactivity
- motor hyperactivity ([4]; ASD Example One, 0.005 mg): mild increase in motor hyperactivity
- temper outbursts during the course of treatment ([4]; ASD Example One, 0.005 mg, no quetiapine administration needed): no temper outbursts
- anxiety ([4]; ASD Example One, after three weeks of treatment): markedly decreased amount of anxiety
- social interactions, language and attention ([4]; ASD Example One, after three weeks, reduced dose 0.005 mg transdermal): significant improvements in their social interactions, language, and attention; also recorded: started using several meaningful sentences in succession
- “stimming” (banging of the plastic sticks) ([4]; ASD Example Three: person, transdermal reserpine 0.01 mg per day, immediately): reduced to only infrequent occurrence
- speech after 2 months ([4]; ASD Example Three, 0.01 mg): shouted out very clearly the words, “I'm hungry”
- behavior by the second day of administration [4, 10]: left their clothes on without supervision
- social response and language comprehension (parents' report) [4, 10]: will now look at them and smile when spoken to and appears to understand language better
- speech within the first 30 days [4, 10]: started making some new speech sounds
- continued course [4, 11]: subtle slow improvements in social behavior, speech, attention span, and awareness and interaction with their environment
- side effects [4, 11]: without any side effects
- attention span ([4]; ASD Example Two: person, transdermal reserpine 0.01 mg per day, immediately): increase attention span
- affectionate behavior [4, 12]: become more affectionate toward their parents and grandparents
- speech [4, 12]: all of their speech is clear and comprehensible
- time they could stay focused on a task [4, 12]: ≥ 30 min
- effect of increased dose ([4]; ASD Example Two, 0.015 mg per day, off gluten free diet): very hyperactive and aggressive
- outcome after dose decreased back ([4]; ASD Example Two, back to 0.01 mg per day, off gluten free diet): maintained their improvements in speech, social behavior, and attention span
- outcome of prior reserpine treatment ([4]; Homeopathic Example One: person): Substantial improvements
- outcome of prior reserpine treatment ([4]; Homeopathic Example Two: person): substantial improvement
- urinary calcium excretion ([4]; as a result of reserpine administration): increase in the amount of calcium excreted in the urine
- side effects after first application ([5]; Schizophrenia Example One: person, transdermal reserpine via metered sprayer on forearm, Abilify stopped the day before): feeling severely depressed; also recorded: rapid heart rate, and anxiety
- time to onset of feeling severely depressed after rubbing the spray into skin ([5]; Schizophrenia Example One, first application): ≤ 30 s
- effect on symptoms of schizophrenia (report) [5, 13]: more focused, they had clearer thoughts
- time to resolution of side effect symptoms after applying the spray [5, 13]: 2 to 3 h
- side effects [5, 14]: none of these side effect symptoms occurred
- task completion [5, 14]: completed a list of chores that they gave them without supervision
- severity of returning side effects [5, 15]: slightly less severe
- time to resolution of side effect symptoms after applying the dose [5, 15]: ≤ 2 h
- behavior when required calcium was not taken ([5]; Schizophrenia Example One, sixth day, 2,000 mg calcium omitted): became very aggressive
- effect on blood calcium without additional calcium ([5]; without taking additional calcium daily): can cause hypocalcemia
- change in quantitative Electroencephalogram ([6]; after three weeks of treatment (FIG. 5)): significant change in their quantitative Electroencephalogram
- High Beta activity in qEEG ([6]; increased after starting HBOT, after starting transdermal reserpine): appears to subside
- effect on aldehyde dehydrogenase [7]: inhibit aldehyde dehydrogenase
- effect of low dose in schizophrenia [8]: resembling more an inert substance than the drug
- effect on MAO-A [9]: activate MAO-A
